Test results taken from PubChem BioAssay AID1195 (EPA DSSTox, 2008).

System: human maximum recommended daily dose, FDA database
Assay: DSSTox (FDAMDD) FDA Maximum (Recommended) Daily Dose Database
Details: active compounds read low
Summary of the method: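 MRDD values come from clinical trials with daily oral dosing, usually for 3–12 months, for the average adult, in mg/day converted to mg/kg-bw/day assuming 60 kg. Antineoplastic mg/m2 doses are divided by 37. Activity score maps log10(1/MRDD mmol) onto 1–100.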

[1] = TherapeuticCategory: vasodilator
[2] = TherapeuticCategory: antibacterial
[3] = TherapeuticCategory: antiprotozoal

Q: Which maximum recommended daily dose (mmol/kg-bw/day) (TherapeuticCategory: antihypertensive, antiglaucomic) does the source give for CC(C)NCC(O)COc1ccc(CCOCC2CC2)cc1 (stereo unspecified) here?
A: 0.00217

Q: Which maximum recommended daily dose (mmol/kg-bw/day) (TherapeuticCategory: antiulcerative) does the source give for CCCCC(C)(O)C/C=C/[C@H]1[C@H](O)CC(=O)[C@@H]1CCCCCCC(=O)OC (stereo partly specified) here?
A: 3.48e-05

Q: For CCCSc1ccc2nc(NC(=O)OC)[nH]c2c1, which maximum recommended daily dose (mmol/kg-bw/day) (TherapeuticCategory: anthelmintic) is on record?
A: 0.0501

Q: CCCCC[C@H](O)/C=C/[C@H]1[C@H](O)CC(=O)[C@@H]1CCCCCCC(=O)O was tested. Which maximum recommended daily dose (mmol/kg-bw/day) [1] did it give?
A: 2.82e-07

Q: For CN1[C@@H]2CC(OC(=O)[C@H](CO)c3ccccc3)C[C@H]1[C@@H]1O[C@@H]12 (stereo partly specified), which maximum recommended daily dose (mmol/kg-bw/day) (TherapeuticCategory: anticholinergic) is on record?
A: 1.09e-06

Q: With NCC(=O)O as the compound, how does the maximum recommended daily dose (mmol/kg-bw/day) (TherapeuticCategory: none) read?
A: 1.33

Q: Which maximum recommended daily dose (mmol/kg-bw/day) (TherapeuticCategory: none) does the source give for N=C(N)N here?
A: 0.846

Q: Which maximum recommended daily dose (mmol/kg-bw/day) (TherapeuticCategory: cholinesterase inhibitor) does the source give for C[n+]1ccccc1/C=N/O here?
A: 0.193

Q: CN(C)[C@@H]1C(=O)C(C(=O)NCN2CCCC2)=C(O)[C@@]2(O)C(=O)C3=C(O)c4c(O)cccc4[C@@](C)(O)C3C[C@@H]12 (stereo partly specified) was tested. Which maximum recommended daily dose (mmol/kg-bw/day) [2] did it give?
A: 0.0111

Q: Which maximum recommended daily dose (mmol/kg-bw/day) (TherapeuticCategory: immunosuppressant, antirheumatic) does the source give for Cn1cnc([N+](=O)[O-])c1Sc1ncnc2nc[nH]c12 here?
A: 0.018

Q: Cc1ncc([N+](=O)[O-])n1CCO was tested. Which maximum recommended daily dose (mmol/kg-bw/day) [3] did it give?
A: 0.195

Q: OCCOCCN1CCN(C(c2ccccc2)c2ccc(Cl)cc2)CC1 (stereo unspecified) was tested. Which maximum recommended daily dose (mmol/kg-bw/day) (TherapeuticCategory: anxiolytic, antihistaminic) did it give?
A: 0.0178

Q: For CCCCc1oc2ccccc2c1C(=O)c1cc(I)c(OCCN(CC)CC)c(I)c1, which maximum recommended daily dose (mmol/kg-bw/day) (TherapeuticCategory: antiarrhythmic, antianginal) is on record?
A: 0.0414

Q: With O=c1[nH]cnc2c1ncn2[C@H]1CC[C@@H](CO)O1 as the compound, how does the maximum recommended daily dose (mmol/kg-bw/day) (TherapeuticCategory: antiviral) read?
A: 0.0282

Q: Cc1cc2c(C(C)C)c(O)c(O)c(C=O)c2c(O)c1-c1c(C)cc2c(C(C)C)c(O)c(O)c(C=O)c2c1O was tested. Which maximum recommended daily dose (mmol/kg-bw/day) (TherapeuticCategory: none) did it give?
A: 0.000642

Q: Which maximum recommended daily dose (mmol/kg-bw/day) [3] does the source give for N=C(N)c1ccc(N=NNc2ccc(C(=N)N)cc2)cc1 (tested in a mixture with another compound) here?
A: 0.0097

Q: For CC(C)(C)NCC(O)COc1cccc2c1CCC(=O)N2 (stereo unspecified), which maximum recommended daily dose (mmol/kg-bw/day) (TherapeuticCategory: antihypertensive, antianginal, antiarrhythmic, antiglaucomic) is on record?
A: 0.000571

Q: How did the maximum recommended daily dose (mmol/kg-bw/day) (TherapeuticCategory: hypnotic, sedative) turn out when C#CC(C)(O)CC (stereo unspecified) was run?
A: 0.17

Q: C[C@]12CCC(=O)C=C1CC[C@H]1[C@@H]3CC[C@](O)(C(=O)CO)[C@@]3(C)C[C@H](O)[C@@]12F was tested. Which maximum recommended daily dose (mmol/kg-bw/day) (TherapeuticCategory: mineralcorticoid) did it give?
A: 4.39e-06

Q: CC(C)(C)NCC(O)COc1cccc2c1C[C@H](O)[C@H](O)C2 (stereo partly specified) was tested. Which maximum recommended daily dose (mmol/kg-bw/day) (TherapeuticCategory: antihypertensive, antianginal) did it give?
A: 0.0346

Q: With CN1C(=O)CN=C(c2ccccc2)c2cc([N+](=O)[O-])ccc21 as the compound, how does the maximum recommended daily dose (mmol/kg-bw/day) (TherapeuticCategory: anticonvulsant, skeletal muscle relaxant) read?
A: 0.000282

Q: CCC(=O)O[C@H]1[C@H](O[C@@H]2[C@@H](C)[C@H](O[C@H]3C[C@@](C)(OC)[C@@H](O)[C@H](C)O3)[C@@H](C)C(=O)O[C@H](CC)[C@@](C)(O)[C@H](O)[C@@H](C)C(=O)[C@H](C)C[C@@]2(C)O)O[C@H](C)C[C@@H]1N(C)C was tested. Which maximum recommended daily dose (mmol/kg-bw/day) [2] did it give?
A: 0.0844

Q: For Oc1cc(O)c2c(c1)O[C@H](c1ccc(O)c(O)c1)[C@@H](O)C2, which maximum recommended daily dose (mmol/kg-bw/day) (TherapeuticCategory: hepatoprotectant, antidiarrheal) is on record?
A: 0.115

Q: How did the maximum recommended daily dose (mmol/kg-bw/day) [1] turn out when CN(C)CCCOC1(Cc2ccccc2)CCCCCC1 was run?
A: 0.0345

Q: Which maximum recommended daily dose (mmol/kg-bw/day) (TherapeuticCategory: erectile disfunction treatment) does the source give for CCCc1nn(C)c2c(=O)[nH]c(-c3cc(S(=O)(=O)N4CCN(C)CC4)ccc3OCC)nc12 here?
A: 0.00352

Q: With CN1CCN(C2=Nc3ccccc3Sc3ccc(Cl)cc32)CC1 as the compound, how does the maximum recommended daily dose (mmol/kg-bw/day) (TherapeuticCategory: antipsychotic) read?
A: 0.000727

Q: With Nc1ncn([C@@H]2O[C@H](CO)[C@@H](O)[C@H]2O)c(=O)n1 as the compound, how does the maximum recommended daily dose (mmol/kg-bw/day) (TherapeuticCategory: antineoplastic) read?
A: 0.0831

Q: For CC1(C)S[C@@H]2[C@H](N=CN3CCCCCC3)C(=O)N2[C@H]1C(=O)O, which maximum recommended daily dose (mmol/kg-bw/day) [2] is on record?
A: 0.0461

Q: Cc1nnc(SCC2=C(C(=O)O)N3C(=O)[C@@H](NC(=O)Cn4cnnn4)[C@H]3SC2)s1 was tested. Which maximum recommended daily dose (mmol/kg-bw/day) [2] did it give?
A: 0.147

Q: Which maximum recommended daily dose (mmol/kg-bw/day) (TherapeuticCategory: progestogen) does the source give for C#C[C@]1(O)CC[C@H]2[C@@H]3CCC4=C[C@@H](O)CC[C@@H]4[C@H]3CC[C@@]21C here?
A: 5.56e-05

Q: OCc1ccccc1 was tested. Which maximum recommended daily dose (mmol/kg-bw/day) (TherapeuticCategory: none) did it give?
A: 0.0462

Q: How did the maximum recommended daily dose (mmol/kg-bw/day) (TherapeuticCategory: none) turn out when N[C@@H](CS)C(=O)O was run?
A: 0.825

Q: CCO was tested. Which maximum recommended daily dose (mmol/kg-bw/day) (TherapeuticCategory: topical antiseptic) did it give?
A: 2.17

Q: CCCC(=O)Nc1c(I)cc(I)c(CC(CC)C(=O)O)c1I (stereo unspecified) was tested. Which maximum recommended daily dose (mmol/kg-bw/day) (TherapeuticCategory: diagnostic aid) did it give?
A: 0.0754

Q: How did the maximum recommended daily dose (mmol/kg-bw/day) (TherapeuticCategory: analgesic, antipyretic, anti inflammatory) turn out when C=CCOc1ccc(CC(=O)O)cc1Cl was run?
A: 0.00737

Q: With NCC1(CC(=O)O)CCCCC1 as the compound, how does the maximum recommended daily dose (mmol/kg-bw/day) (TherapeuticCategory: anticonvulsant) read?
A: 0.117
